Data reported in the NIST ThermoML archive (doi:10.1021/je400471m).
Numbers after ± are expanded uncertainties. Each block holds one molecule with its values, some of them ahead of it.

Experiments:
[1] = refractive index (Na D-line) (dimensionless); wn = mass fraction of the nth substance listed; settings: 338.15 K, 98 kPa, Liquid, Standard Abbe refractometry
[2] = refractive index (Na D-line) (dimensionless); settings: 338.15 K; 98 kPa; Liquid; Standard Abbe refractometry

refractive index ([1]; w1 = 0.2189): 1.3687 ± 0.0096
refractive index ([1]; w1 = 0.3592): 1.3945 ± 0.0096
refractive index ([1]; w1 = 0.4567): 1.4159 ± 0.0096
refractive index ([1]; w1 = 0.5286): 1.4339 ± 0.0096
refractive index ([1]; w1 = 0.5759): 1.4393 ± 0.0096
refractive index ([1]; w1 = 0.579): 1.4413 ± 0.0096
refractive index ([1]; w1 = 0.5836): 1.4428 ± 0.0096
Structure (SMILES): O=C(CO)[C@@H](O)[C@H](O)[C@H](O)CO [D-fructose] + O

refractive index ([1]; w1 = 0.2): 1.3363 ± 0.0096
refractive index ([1]; w1 = 0.4): 1.3415 ± 0.0096
refractive index ([1]; w1 = 0.6): 1.3569 ± 0.0096
refractive index ([1]; w1 = 0.9): 1.3587 ± 0.0096
Structure (SMILES): CCO [ethanol] + O

refractive index [2]: 1.323 ± 0.0096
Structure (SMILES): O [water]
